Non-standard residues stand in square brackets, D forms with d. Residues, ends and D or L forms follow the SMILES beside them. Groups on a side chain read outwards from the residue. No end group written: not given here. Phe(4-NH2) = Nc1ccc(C[C@H](N)C(=O)O)cc1; Aze = O=C(O)[C@@H]1CCN1; Nleu = CC(C)CNCC(=O)O; Aib = CC(C)(N)C(=O)O
Key:
[1] = physchem; conditions: buffer
Method: (§1) The solution was incubated at 37° C. […] The dipeptide cleavage was quenched by lowering the pH with an equal volume of 0.1% TFA. The rate of cleavage was qualitatively monitored by LC-MS and quantitatively studied by HPLC. The retention time and relative peak area for the prodrug and the parent model peptide were quantified using Peak Simple Chromatography software.
(§2) The flow rate was 1 ml/min. Solvent A contained 0.1% TFA in distilled water, and solvent B contained 0.1% TFA in 90% CH3CN. A linear gradient was employed (0% to 30% B in 10 minutes). The data were collected and analyzed using Peak Simple Chromatography software.
(§3) The rate of cleavage was determined for the respective propeptides. The concentrations of the propeptides and the model parent peptide were determined by their respective peak areas. The first order dissociation rate constants of the prodrugs were determined by plotting the logarithm of the concentration of the prodrug at various time intervals. The slope of this plot provides the rate constant ‘k’.

[2] = Rate of model dipeptide cleavage from model hexapeptide in PBS (HPLC); conditions: buffer
Method: as §1, §2, §3

[3] = target: Insulin Receptor (Homo sapiens, UniProt P06213); assay: Insulin receptor binding assay (competition, scintillation proximity); conditions: Table 9; IGF-1 receptor IC50 versus insulin receptor IC50
[4] = Dipeptide half life on IGF1 dipeptide extended (p-NH2-F)A19 amide derivatives in PBS (HPLC); assay type: physicochemical; conditions: buffer, pH 7.4
Method: IGF-1 peptides was measured to determine the impact of the peptide sequence or heteroduplex on the dipeptide cleavage.
Accordingly, the IGF1A chain alone was determined to be a good model for the study of pro-drug half life on IGF1 B:A (Y^B16L^B17) derivative peptides. […] For simplicity, prodrug half lives were determined using only the IGF1 A chain in the absence of the B chain. The half lives of each propeptide was determined as described in Example 5.
The IGF^B16B17 derivative peptide prodrugs were incubated in PBS, pH 7.4 at 37° C. and at predetermined time intervals an aliquot was taken and further degradation was quenched with 0.1% TFA and the aliquot was subjected to analytical HPLC analysis. Peaks a and b, representing the prodrug and active forms of the IGF^B16B17 derivative peptide were identified with LC-MS and quantified by integration of peak area an HPLC. FIGS. 9A-9C show the output of an HPLC analysis of the degradation of the IGF^B16B17 derivativepeptide prodrug: IGF1A(Ala)^6,7,11,20(Aib-Pro-pNH-F)^19. Aliquots were taken at 20 minutes (FIG. 9A), 81 minutes (FIG. 9B) and 120 minutes (FIG. 9C) after beginning the incubation of the prodrug in PBS.

[5] = in vitro; assay type: in vitro ADME; conditions: plasma
[6] = target: human IGF-1 receptor (human, UniProt P08069 31-1367); assay: cell-based or functional assay

Chain of Insulin Receptor (P06213 28-758 limits assumed): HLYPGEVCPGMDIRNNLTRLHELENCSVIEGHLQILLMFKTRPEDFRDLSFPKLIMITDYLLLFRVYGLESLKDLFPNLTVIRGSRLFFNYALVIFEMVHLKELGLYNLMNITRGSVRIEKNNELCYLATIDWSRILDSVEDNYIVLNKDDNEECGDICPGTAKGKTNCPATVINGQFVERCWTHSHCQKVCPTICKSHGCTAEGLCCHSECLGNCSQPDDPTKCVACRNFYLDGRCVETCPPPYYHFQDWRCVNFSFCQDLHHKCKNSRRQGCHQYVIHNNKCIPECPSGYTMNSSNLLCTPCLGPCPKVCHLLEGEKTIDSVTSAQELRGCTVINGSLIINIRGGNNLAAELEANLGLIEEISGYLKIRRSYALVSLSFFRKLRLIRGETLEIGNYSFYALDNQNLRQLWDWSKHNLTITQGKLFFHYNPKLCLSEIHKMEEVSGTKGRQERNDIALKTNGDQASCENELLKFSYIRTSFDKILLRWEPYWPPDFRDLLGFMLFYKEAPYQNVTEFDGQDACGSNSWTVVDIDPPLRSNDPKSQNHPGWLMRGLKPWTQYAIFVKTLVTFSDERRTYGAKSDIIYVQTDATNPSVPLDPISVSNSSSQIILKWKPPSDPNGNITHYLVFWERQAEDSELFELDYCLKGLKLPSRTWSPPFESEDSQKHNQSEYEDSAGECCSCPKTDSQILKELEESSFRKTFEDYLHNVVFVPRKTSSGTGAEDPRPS
Chain of Insulin Receptor (P06213 763-1382 partner limits assumed): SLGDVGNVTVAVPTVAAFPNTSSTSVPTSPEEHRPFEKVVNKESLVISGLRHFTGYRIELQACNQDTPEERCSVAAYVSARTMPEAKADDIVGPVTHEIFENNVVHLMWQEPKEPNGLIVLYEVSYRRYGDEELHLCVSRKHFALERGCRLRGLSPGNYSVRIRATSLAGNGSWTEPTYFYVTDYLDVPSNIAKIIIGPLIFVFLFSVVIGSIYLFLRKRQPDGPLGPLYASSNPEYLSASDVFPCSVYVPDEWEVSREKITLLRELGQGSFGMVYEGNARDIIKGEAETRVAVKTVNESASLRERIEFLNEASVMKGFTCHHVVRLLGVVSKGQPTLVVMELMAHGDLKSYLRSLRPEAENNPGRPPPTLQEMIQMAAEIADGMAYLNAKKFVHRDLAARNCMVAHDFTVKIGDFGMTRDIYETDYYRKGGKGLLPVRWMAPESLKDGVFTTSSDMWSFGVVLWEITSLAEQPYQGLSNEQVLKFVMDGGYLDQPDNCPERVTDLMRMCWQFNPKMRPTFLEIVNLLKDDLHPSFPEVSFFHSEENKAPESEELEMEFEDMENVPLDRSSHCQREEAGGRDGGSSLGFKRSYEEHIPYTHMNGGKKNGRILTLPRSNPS

Work on `C[C@@H](O)[C@H](NC(=O)CNC(=O)[C@H](CCCNC(=N)N)NC(=O)[C@H](CO)NC(=O)[C@H](Cc1c[nH]cn1)NC(=O)[C@@H]1CCN1C(=O)C(C)(C)N)C(=O)N[C@@H](Cc1ccccc1)C(N)=O` [Compound 26] (H-[Aib][Aze]HSRGTF-NH2) yielded a half-life at 1 mg/ml [1] greater than 20.8 days.

`C[C@@H](O)[C@H](NC(=O)CNC(=O)[C@H](CCCNC(=N)N)NC(=O)[C@H](CO)NC(=O)[C@H](Cc1c[nH]cn1)NC(=O)[C@H](C)N(C)C(=O)[C@H](N)CCCCN)C(=O)N[C@@H](Cc1ccccc1)C(N)=O` [Compound 31] showed a half-life at 1 mg/ml [2] of 840 min.

In the case of `C[C@@H](O)[C@H](NC(=O)CNC(=O)[C@H](CCCNC(=N)N)NC(=O)[C@H](CO)NC(=O)[C@H](Cc1c[nH]cn1)NC(=O)[C@H](Cc1ccccc1)N(C)C(=O)[C@H](N)CCCCN)C(=O)N[C@@H](Cc1ccccc1)C(N)=O` [Compound 32], the half-life at 1 mg/ml [2] is reported as 3420 min.

With `CC[C@H](C)[C@H](NC(=O)CN)C(=O)N[C@H](C(=O)N[C@@H](CC(=O)O)C(=O)N[C@@H](CCC(=O)O)C(=O)N[C@H]1CSSC[C@@H]2NC(=O)[C@H](CO)NC(=O)[C@H](CCCNC(=N)N)NC(=O)[C@H](Cc3ccccc3)NC(=O)[C@H](CSSC[C@H](NC(=O)[C@H](CC(C)C)NC(=O)[C@@H](NC(=O)[C@H](CCC(=O)O)NC(=O)[C@@H]3CCCN3C(=O)CN)[C@@H](C)O)C(=O)NCC(=O)N[C@@H](C)C(=O)N[C@@H](CCC(=O)O)C(=O)N[C@@H](CC(C)C)C(=O)N[C@@H](C(C)C)C(=O)N[C@@H](CC(=O)O)C(=O)N[C@@H](C)C(=O)N[C@@H](CC(C)C)C(=O)N[C@@H](Cc3ccc(O)cc3)C(=O)N[C@@H](CC(C)C)C(=O)N[C@@H](C(C)C)C(=O)N[C@H](C(=O)NCC(=O)N[C@@H](CC(=O)O)C(=O)N[C@@H](CCCNC(=N)N)C(=O)NCC(=O)N[C@@H](Cc3ccccc3)C(=O)N[C@@H](Cc3ccc(O)cc3)C(N)=O)CSSC[C@@H](C(=O)N[C@@H](C)C(N)=O)NC(=O)[C@H](Cc3ccc(O)cc3)NC(=O)[C@H](CCSC)NC(=O)[C@H](CCC(=O)O)NC(=O)[C@H](CC(C)C)NC(=O)[C@H](CCCNC(=N)N)NC(=O)[C@H](CCCNC(=N)N)NC(=O)[C@H](CC(C)C)NC(=O)[C@H](CC(=O)O)NC2=O)NC1=O)C(C)C` [IGF-1 A:B (E10Y16L17) DPI] the Ratio [3] was 60.2.

Work on `CC[C@H](C)[C@H](NC(=O)CN)C(=O)N[C@H](C(=O)N[C@@H](CC(=O)O)C(=O)N[C@@H](CCC(=O)O)C(=O)N[C@@H](C)C(=O)N[C@@H](C)C(=O)N[C@@H](Cc1ccccc1)C(=O)N[C@@H](CCCNC(=N)N)C(=O)N[C@@H](CO)C(=O)N[C@@H](C)C(=O)N[C@@H](CC(=O)O)C(=O)N[C@@H](CC(C)C)C(=O)N[C@@H](CCCNC(=N)N)C(=O)N[C@@H](CCCNC(=N)N)C(=O)N[C@@H](CC(C)C)C(=O)N[C@@H](CCC(=O)O)C(=O)N[C@@H](CCSC)C(=O)N[C@@H](Cc1ccc(NC(=O)CN(CC(C)C)C(=O)[C@H](N)CCCCN)cc1)C(=O)N[C@@H](C)C(=O)N[C@@H](C)C(N)=O)C(C)C` [dK N-isobutyl Gly] (H-GIVDEAAFRSADLRRLEM[Phe(4-NH2)]([Nleu-dK])AA-NH2) yielded a half-life [4] of 264 min and a half-life [5] of 246 min.

B1: IGF-1 A (H8 A9 N21):B(H5D10Y16L17 A22) DPI A-COOH (ligand)
chain 1: GIVDECCHASCDLRRLEMYCN-OH
chain 2: GPEHLCGADLVDALYLVCGDAGFY
modifications: not fully specified (bridges); cysteine pairing not given here
With B1 the “% IGF” value [6] was 7.7%.
